Laboratory results: patent publication US20250288587A1, “Methods of Treating Fibrosis” (Athira Pharma, Inc., priority 2022, published 2025)

Experiments:
[1] = system: pulmonary LPS-stimulated rats; assay: Immune cell infiltration in BALF, LPS-induced acute pulmonary inflammation; type: in vivo; design: key to Total Leukocytes in BALF, reduction in cell count vs disease control / Neutrophils in BALF, reduction in cell count vs disease control: + = >5-25% improvement vs disease control; ++ = >26-50% improvement vs disease control; +++ = >51-100% improvement v disease control; NS means not significant; settings: 24 h and 0.5 h before LPS; for Neutrophils in BALF, reduction in cell count vs disease control / Total Leukocytes in BALF, reduction in cell count vs disease control: BALF 4 h post LPS; for total leukocyte counts and neutrophil counts in BALF compared to LPS-only controls: IV
From the text: Acute pulmonary inflammation can be effectively modeled in rats by intratracheal administration of bacterial lipopolysaccharides (LPS). Pulmonary inflammation that is left unresolved can lead to pulmonary fibrosis. The normal process of inflammation is regulated and promoted by expression, secretion, and distribution of inflammatory signaling proteins. Therapeutics intended to reduce inflammation are commonly identified by their ability to change the expression levels of inflammatory signaling molecules, either by disruption of the inflammatory pathway directly, or resolution of the inflammatory signaling cascade. The severity of inflammatory response can be measured by quantifying the amount of immune cell infiltration and secretion of cytokine signaling proteins in bronchoalveolar lavage fluid (BALF).
In this study, acute pulmonary inflammation was induced in healthy male Sprague-Dawley rats (7-9 weeks old at study start) by intratracheal instillation of […] LPS in saline. Test animals were treated with test compounds twice, at 24 hours and 0.5 hours before LPS treatment by intravenous (IV) injection. […] Four hours post LPS administration, animals were euthanized by intraperitoneal injection of thiopentone and 20 mL of cold Hanks Balanced Salt Solution, pH 7.2, was infused into the lungs through tracheal cannulation. BALF was then collected.
Immune cell infiltration was performed by counting total leukocytes using a MUSE® mini flow cytometer, and by manual counting of neutrophil cells in cytospin smears stained with Leishman's staining reagent.

[2] = system: CFA-stimulated rats; assay: CFA inflammatory pain model, mechanical allodynia (von Frey test); type: in vivo; design: key to Mechanical Allodynia, change in sensitivity compared to CFA alone / Mechanical Allodynia, significant reduction in pain behavior vs CFA alone: NS = no statistically significant change in sensitivity compared to CFA alone; + = statistically significant change in sensitivity compared to CFA alone, p < 0.05; settings: for study days on which sensitivity to mechanical stimulation was reduced: PO, post-dose testing, any tested dose; for PWT (paw withdrawal threshold) vs CFA+vehicle: data not shown
Protocol: Response to peripheral inflammatory stimulus can be modeled by administering complete Freund's adjuvant (CFA), a suspension of desiccated mycobacterium in paraffin oil and mannide monooleate, by subcutaneous injection into the rat's footpad. The introduction of CFA to peripheral tissues leads to a rapid, sustained, inflammatory reaction in the treated tissue within 24 hours. Subcutaneous administration of CFA in the plantar region of the paw induces inflammatory pain behaviors that persist for at least 8 days. CFA treatment also leads to the accumulation of inflammatory cytokines in paw tissue at the site of injury, which, if unresolved, can lead to formation of fibrotic tissue. The extent of inflammatory response to CFA can be assessed by quantification of inflammatory cytokines in paw skin lysate, and inflammatory pain behaviors by mechanical allodynia (von Frey test) and thermal hyperalgesia (Hargreaves test).
In one study, Compound 2a was tested for its ability to reduce inflammatory pain behaviors in the CFA inflammation model. On study day 0, […] of CFA was administered subcutaneously in the plantar of the right hind paw. Animals were treated daily with Compound 2a in solution via oral gavage (PO) at doses of 1, 0.1, and 0.025 mg/kg. Treatment began before CFA injection on study day −1 and continued through study day 8.
Mechanical allodynia was measured using the von Frey test. In this test, rats were placed on a wire mesh and a series of filaments designed to deliver probing force ranging from 4 to 26 grams were applied to the mid-plantar surface of the right hind paw. Animals indicated pain response by lifting the probed paw. The minimal force required to elicit the withdrawal response was recorded as the paw withdrawal threshold (PWT). Von Frey testing was performed 1 hour after Compound 2a dosing on study day 1, 3, and 7, and was also tested pre-dosing on day 7. Statistical analysis was performed using a 1-way ANOVA with Tukey post-test. A p-value below 0.05 was considered statistically significant. Control animals stimulated with CFA but treated with only vehicle had high sensitivity to mechanical stimulation compared to normal control animals.
In another study, Compounds 1a, 5a, and 6a were similarly tested against CFA-induced inflammatory stimulation in the right hind foot for their ability to reduce pain behaviors. This study also included quantification of inflammatory cytokine expression in paw skin lysate. Inflammatory pain stimulation with CFA injection and assessment of mechanical and thermal pain behaviors were performed as described above, with the exception that only post-dose pain behavior testing is reported.
Intraplantar CFA injection occurred at day 0. Treatment with Compounds 1a, 5a, and 6a occurred at days −2, 1, 3, and 7. At day 8, the rats were terminated and cytokine levels were measured in paw skin and plasma. Tissue from paw bone, joint, and muscle were obtained for H&E staining and analysis. Cytokine levels in test compound-treated animals were compared to CFA-stimulated animals. Analytes included interleukin 4 (IL-4), tumor necrosis factor alpha (TNF-α) and interferon gamma (IFN-γ). Statistical analysis consisted of 1-way ANOVA followed by Dunnett's multiple comparisons post-test. Mechanical allodynia and thermal hyperalgesia were tested 1 hour post-dosing on days 1, 3, and 7. PWT refers to […] paw withdrawal threshold where a higher value corresponds to a higher pain threshold. PWL refers to […] paw withdrawal latency where a higher value corresponds to a higher pain threshold.

[3] = system: MRC-5 cells; assay: TGFβ-stimulated αSMA expression in MRC-5 cells (HTRF); type: cell-based; design: key to Significant reduction in αSMA via HTRF compared to TGFβ alone: NS = no statistically significant change in aSMA expression; + = p < 0.05; ++ = p < 0.01; +++ = p < 0.005; ++++ = p < 0.001; settings: for αSMA expression: combined with 0.01 ng/ml HGF; for Significant reduction in αSMA via HTRF compared to TGFβ alone: TGFβ 1 ng/ml, HGF 0.01 ng/ml, 48 h
Protocol: In this study, pulmonary-derived immortalized fibroblasts, MRC-5 cells, were cultured as a model of the early transition to fibrosis, and αSMA expression was measured using an immunodetection system driven by homogenous time-resolved fluorescence (HTRF) technology. This detection system produces a fluorescent signal in the presence of αSMA in cell lysates. Cells were grown to confluence in 96-well culture plates in complete media, and then transitioned to serum-free media for 2 hours. Next TGFβ (final 1 ng/ml in serum-free media) was added to the cells to stimulate the fibrotic transition. After 2 hours, media containing either HGF or HGF combined with one of the compounds was added to the cells. After incubation for 48 hours, cells were lysed and processed for αSMA HTRF to detect the levels of αSMA expression and compared to TGFβ-stimulated cultures. Statistical analysis consisted of 1-way ANOVA with a Dunnett's multiple comparison's post-test.

CCC(C)CN1CC2N(C(=O)c3ccc(C(F)(F)F)cc3)CCC(=O)N2[C@@H](C)C1=O (stereo partly shown) [Compound 1a]
Neutrophils in BALF, reduction in cell count vs disease control ([1]; 0.075 mg/kg IV): + (+ = >5% reduction in cell count vs disease control) | Total Leukocytes in BALF, reduction in cell count vs disease control ([1]; 0.075 mg/kg IV): + (+ = >5% reduction in cell count vs disease control) | Neutrophils in BALF, reduction in cell count vs disease control ([1]; 0.75 mg/kg IV): NS | Total Leukocytes in BALF, reduction in cell count vs disease control ([1]; 0.75 mg/kg IV): NS | total leukocyte counts and neutrophil counts in BALF compared to LPS-only controls [1]: reduced both total leukocyte counts and neutrophil counts | Mechanical Allodynia, significant reduction in pain behavior vs CFA alone ([2]; 8 mg/kg PO, Day 1, 1 h post-dose): + (+ = statistically significant change in sensitivity compared to CFA alone, p < 0.05) | Mechanical Allodynia, significant reduction in pain behavior vs CFA alone ([2]; 8 mg/kg PO, Day 3, 1 h post-dose): + (+ = statistically significant change in sensitivity compared to CFA alone, p < 0.05) | Mechanical Allodynia, significant reduction in pain behavior vs CFA alone ([2]; 8 mg/kg PO, Day 7, 1 h post-dose): NS | Mechanical Allodynia, significant reduction in pain behavior vs CFA alone ([2]; 16 mg/kg PO, Day 1, 1 h post-dose): + (+ = statistically significant change in sensitivity compared to CFA alone, p < 0.05) | Mechanical Allodynia, significant reduction in pain behavior vs CFA alone ([2]; 16 mg/kg PO, Day 3, 1 h post-dose): + (+ = statistically significant change in sensitivity compared to CFA alone, p < 0.05) | Mechanical Allodynia, significant reduction in pain behavior vs CFA alone ([2]; 16 mg/kg PO, Day 7, 1 h post-dose): + (+ = statistically significant change in sensitivity compared to CFA alone, p < 0.05) | study days on which sensitivity to mechanical stimulation was reduced [2]: study days 1, 3, and 7 | PWT (paw withdrawal threshold) vs CFA+vehicle ([2]; day 1): statistically significant increase | PWT (paw withdrawal threshold) vs CFA+vehicle ([2]; day 3, 8 and 16 mg/kg): statistically significant increase | PWT (paw withdrawal threshold) vs CFA+vehicle ([2]; day 7, 16 mg/kg): statistically significant increase | αSMA expression ([3]; 1 uM): significantly reduced αSMA | Significant reduction in αSMA via HTRF compared to TGFβ alone ([3]; test compound 1 nM): NS | Significant reduction in αSMA via HTRF compared to TGFβ alone ([3]; test compound 1 μM): ++++ (++++ = p < 0.001)

CCC(C)CN1CC2N(Cc3ccc(C(F)(F)F)cc3)CCC(=O)N2[C@@H](C)C1=O (stereo partly shown) [Compound 5a]
Neutrophils in BALF, reduction in cell count vs disease control ([1]; 0.075 mg/kg IV): ++ (++ = >25% reduction in cell count vs disease control) | Total Leukocytes in BALF, reduction in cell count vs disease control ([1]; 0.075 mg/kg IV): ++ (++ = >25% reduction in cell count vs disease control) | Neutrophils in BALF, reduction in cell count vs disease control ([1]; 0.75 mg/kg IV): + (+ = >5% reduction in cell count vs disease control) | Total Leukocytes in BALF, reduction in cell count vs disease control ([1]; 0.75 mg/kg IV): + (+ = >5% reduction in cell count vs disease control) | Neutrophils in BALF, reduction in cell count vs disease control ([1]; 7.5 mg/kg IV): + (+ = >5% reduction in cell count vs disease control) | Total Leukocytes in BALF, reduction in cell count vs disease control ([1]; 7.5 mg/kg IV): + (+ = >5% reduction in cell count vs disease control) | total leukocyte counts and neutrophil counts in BALF compared to LPS-only controls [1]: reduced both total leukocyte counts and neutrophil counts | Mechanical Allodynia, significant reduction in pain behavior vs CFA alone ([2]; 10 mg/kg PO, Day 1, 1 h post-dose): + (+ = statistically significant change in sensitivity compared to CFA alone, p < 0.05) | Mechanical Allodynia, significant reduction in pain behavior vs CFA alone ([2]; 10 mg/kg PO, Day 3, 1 h post-dose): NS | Mechanical Allodynia, significant reduction in pain behavior vs CFA alone ([2]; 10 mg/kg PO, Day 7, 1 h post-dose): NS | Mechanical Allodynia, significant reduction in pain behavior vs CFA alone ([2]; 20 mg/kg PO, Day 1, 1 h post-dose): + (+ = statistically significant change in sensitivity compared to CFA alone, p < 0.05) | Mechanical Allodynia, significant reduction in pain behavior vs CFA alone ([2]; 20 mg/kg PO, Day 3, 1 h post-dose): NS | Mechanical Allodynia, significant reduction in pain behavior vs CFA alone ([2]; 20 mg/kg PO, Day 7, 1 h post-dose): NS | study days on which sensitivity to mechanical stimulation was reduced [2]: study day 1 | PWT (paw withdrawal threshold) vs CFA+vehicle ([2]; day 1): statistically significant increase | αSMA expression ([3]; 1 nM): significantly reduced αSMA | αSMA expression ([3]; 1 uM): significantly reduced αSMA | Significant reduction in αSMA via HTRF compared to TGFβ alone ([3]; test compound 1 nM): + (+ = p < 0.05) | Significant reduction in αSMA via HTRF compared to TGFβ alone ([3]; test compound 1 μM): ++++ (++++ = p < 0.001)
